“And” between values parts separate entries of the source, which are not always exact repeats. Equal values may be shown once. Inconclusive results and toxic doses are left out.
System: P388 leukemia ip, CD2F1 mice, survival T/C
Test: NCI In Vivo Anticancer Drug Screen. Data for tumor model P388 Leukemia (intraperitoneal) in CD2F1 (CDF1) mice
Conditions: endpoint: median survival time, higher = longer survival
In short: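 Mice carrying the transplanted tumor received test compound or vehicle. Survival was recorded in each group, and the value is the treated-group measurement divided by that of the vehicle-treated control group.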

[1] = dose: 50.0 mg/kg/injection, schedule: Q01DX005 (ip), vehicle: saline with Tween-80
[2] = dose: 100.0 mg/kg/injection, schedule: Q01DX005 (ip), vehicle: saline with Tween-80
[3] = dose: 200.0 mg/kg/injection, schedule: Q01DX005 (ip), vehicle: saline with Tween-80
[4] = dose: 60.0 mg/kg/injection, schedule: Q01DX005 (ip), vehicle: saline with Tween-80
[5] = dose: 120.0 mg/kg/injection, schedule: Q01DX005 (ip), vehicle: saline with Tween-80
[6] = dose: 240.0 mg/kg/injection, schedule: Q01DX005 (ip), vehicle: saline with Tween-80

Compound: NC(Cc1ccc(OC(c2ccccc2)c2ccccc2)cc1)C(=O)O (stereo not drawn)
- T/C (dose: 12.5 mg/kg/injection, schedule: Q01DX009 (ip), vehicle: saline with Tween-80): 116 % of control
- T/C (dose: 25.0 mg/kg/injection, schedule: Q01DX009 (ip), vehicle: saline with Tween-80): 98 % of control
- T/C (dose: 50.0 mg/kg/injection, schedule: Q01DX009 (ip), vehicle: saline with Tween-80): 88 % of control
- T/C (dose: 100.0 mg/kg/injection, schedule: Q01DX009 (ip), vehicle: saline with Tween-80): 95 % of control
- T/C (dose: 200.0 mg/kg/injection, schedule: Q01DX009 (ip), vehicle: saline with Tween-80): 97 % of control

Compound: O=C1N(c2ccccc2)C(=Nc2ccccc2)C(=Nc2ccccc2)N1c1ccccc1
- T/C (dose: 50.0 mg/kg/injection, schedule: Q01DX005 (ip), vehicle: Klucel + Tween-80): 96 % of control
- T/C (dose: 100.0 mg/kg/injection, schedule: Q01DX005 (ip), vehicle: Klucel + Tween-80): 91 % of control
- T/C (dose: 200.0 mg/kg/injection, schedule: Q01DX005 (ip), vehicle: Klucel + Tween-80): 92 % of control

Compound: COc1ccc(-c2coc3c4c(ccc3c2=O)OC(C)(C)C=C4)cc1
- T/C [1]: 101 % of control
- T/C [2]: 99 % of control
- T/C [3]: 100 % of control

Compound: Cc1ccc(N=Nc2c(-c3ccccc3)nn(C(=S)S)c2-c2ccccc2)cc1
- T/C (dose: 25.0 mg/kg/injection, schedule: Q04DX002 (ip), vehicle: Klucel (hydroxypropylcellulose) (HPC)): 101 % of control
- T/C (dose: 50.0 mg/kg/injection, schedule: Q04DX002 (ip), vehicle: Klucel (hydroxypropylcellulose) (HPC)): 105 % of control
- T/C (dose: 100.0 mg/kg/injection, schedule: Q04DX002 (ip), vehicle: Klucel (hydroxypropylcellulose) (HPC)): 99 % of control
- T/C (dose: 200.0 mg/kg/injection, schedule: Q04DX002 (ip), vehicle: Klucel (hydroxypropylcellulose) (HPC)): 103 % of control

Compound: O=C(NCc1ccccc1)OCc1c(COC(=O)NCc2ccccc2)c(-c2ccc(Cl)c(Cl)c2)n2c1CCC2
- T/C (dose: 3.13 mg/kg/injection, schedule: Q01DX009 (ip), vehicle: distilled water + Tween-80): 105 % of control
- T/C (dose: 6.25 mg/kg/injection, schedule: Q01DX009 (ip), vehicle: distilled water + Tween-80): 151 % of control
- T/C (dose: 12.5 mg/kg/injection, schedule: Q01DX009 (ip), vehicle: distilled water + Tween-80): 158 % of control and 161 % of control
- T/C (dose: 25.0 mg/kg/injection, schedule: Q01DX009 (ip), vehicle: distilled water + Tween-80): 160 % of control and 174 % of control
- T/C (dose: 50.0 mg/kg/injection, schedule: Q01DX009 (ip), vehicle: distilled water + Tween-80): 164 % of control and 182 % of control
- T/C (dose: 100.0 mg/kg/injection, schedule: Q01DX009 (ip), vehicle: distilled water + Tween-80): 194 % of control and 196 % of control

Compound: Cc1ncccc1[N+](=O)[O-]
- T/C (dose: 12.5 mg/kg/injection, schedule: Q01DX009 (ip), vehicle: saline + Tween-80 + alcohol): 100 % of control
- T/C (dose: 25.0 mg/kg/injection, schedule: Q01DX009 (ip), vehicle: saline + Tween-80 + alcohol): 100 % of control
- T/C (dose: 50.0 mg/kg/injection, schedule: Q01DX009 (ip), vehicle: saline + Tween-80 + alcohol): 106 % of control and 93 % of control

Compound: CC(C)CC(=O)CC(=O)CCC(=O)Nc1ccc(Cl)cc1Cl
- T/C [4]: 100 % of control
- T/C [5]: 108 % of control
- T/C [6]: 100 % of control

Compound: C=C(C)c1ccc2c(c1)[C@H](OC(=O)c1ccccc1)C[C@H]1[C@](C)(COC(=O)c3ccccc3)CCC[C@]21C
- T/C [4]: 105 % of control
- T/C [5]: 92 % of control
- T/C [6]: 90 % of control

Compound: COc1ccc(CN)cc1OC
- T/C (dose: 100.0 mg/kg/injection, schedule: Q01DX009 (ip), vehicle: saline): 100 % of control
- T/C (dose: 200.0 mg/kg/injection, schedule: Q01DX009 (ip), vehicle: saline): 105 % of control

Compound: CN1CCC(=C(C#N)C(=O)O)CC1
- T/C (dose: 50.0 mg/kg/injection, schedule: Q01DX005 (ip), vehicle: saline): 103 % of control
- T/C (dose: 100.0 mg/kg/injection, schedule: Q01DX005 (ip), vehicle: saline): 95 % of control
- T/C (dose: 200.0 mg/kg/injection, schedule: Q01DX005 (ip), vehicle: saline): 103 % of control

Compound: Nc1ccc2nc3cc(Nc4ccccc4)c(=Nc4ccccc4)cc-3n(-c3ccccc3)c2c1
- T/C [1]: 100 % of control
- T/C [2]: 98 % of control
- T/C [3]: 93 % of control
